Measurements as given in patent publication US11814341B2, “Non-peptidic cell-penetrating motifs” (Ohio State Innovation Foundation, priority 2018, dated 2023).

What was measured:
HeLa cells [1] = test: MTT viability assay, anti-cancer activity of Hsp90 inhibitors; type: cell-based; details: 24 h
HeLa cells [2] = test: JC-10 mitochondrial membrane potential assay; details: 20 μM, 24 h; above the normal value
Experimental: Procedure: Mitochondria membrane potential assay. Experiments were carried out by using JC-10 Mitochondrial Membrane Potential Assay kit (Abcam, ab112134) according to the manufacturer's manual. Briefly, HeLa cells (2×10^4 cells/well) were seeded in a 96-well plate (black wall clear bottom) in 90 μL of DMEM containing 10% FBS and 1% penicillin/streptomycin and allowed to attach overnight. […] Without washing, cells were treated with 50 μL of a JC-10 dye solution (30 μM in buffer A) for 60 min. Fifty μL of buffer B was added and the fluorescence intensities at Ex/Em=490/520 nm and 540/590 nm were recorded on a microplate reader (Infinite M1000Pro).
CPM1-3 was next tested for a potential effect on mitochondrial membrane potential, a key indicator of cell health or injury. HeLa cells untreated or treated with CPM were labeled with JC-10, a dye molecule which emits green fluorescence inside the cytosol but red fluorescence inside the mitochondria. The ratio of green/red fluorescence (F520/F590) provides an indicator of the mitochondrial membrane potential.

## COC1=C2C[C@@H](C)C[C@H](OC)[C@H](O)[C@@H](C)/C=C(\C)[C@H](OC(N)=O)[C@@H](OC)/C=C\C=C(/C)C(=O)NC(=CC1=O)C2=O [GA, geldanamycin]
HeLa cells [1]; 0-10 μM
  maximum reduction in HeLa cell viability: ~40%
HeLa cells [1]
  inhibitor concentration at which maximal inhibition was reached: 0.3 µM

## p-trifluoromethoxy carbonyl cyanide phenyl hydrazone [FCCP]
HeLa cells [2]
  increase in the F520/F590 ratio: up to 7 fold
